In patent US20050080045A1, “Composition comprising dextrinsulfate for the treatment of sexual transmitted diseases (std)” (priority 2001, published 2005):

Tests used:
[1] = system: Chlamydia trachomatis Sa2f strain; assay: Chlamydia trachomatis cell culture assay (inclusion bodies in McCoy cell monolayers); assay type: cell-based
Description: McCoy cell monolayers were prepared on coverslips in plastic Bijoux. Cells were infected with Chlamydia trachomatis either alone or in the presence of dextrin sulphate. The Sa2f strain of C. trachomatis was used. Sa2f, which causes lymphogranuloma venereum, is similar to C. trachomatis. It is a heavily passaged laboratory strain which can infect McCoy cells without the need for spinning (for most strains of C. trachomatis, it is necessary to spin the cells onto the monolayers in the presence of cyclohexamide in order for infection of the monolayers to occur).
After incubation, coverslips were fixed and stained for C. trachomatis. The number of inclusion bodies per coverslip was estimated by fluorescence microscopy.

HSV-2 = assay: HSV plaque reduction assay in Vero cells (HSV-2); assay type: cell-based, Herpes Simplex Virus; settings: mean of two determinations
Description: (§1) Dextrin sulphate was added to the cell culture and then removed following an incubation period. Virus was then added as it is thought that dextrin sulphate attaches to cell receptors, thereby blocking subsequent viral entry. Following incubation with virus, dextrin sulphate in carboxylmethyl cellulose was added. This medium was used to form a gel layer to prevent any intracellular virus (that has bypassed the dextrin sulphate-cell receptor blocking interaction) from further infecting other cells.
(§2) • (i) Seed 24 well cell culture plates with Vero cells (2×10^5 cells/ml/well). Prepare one plate per virus plus 2 plates for controls. • (ii) Grow cells to confluency overnight at 37° in 5% CO2. • (iii) Dilute virus as calculated to give about 100 plaques per well, a minimum volume of 5 ml per plate.
Plate Layout. Dextrin sulphate (D.S.) concentrations are in mg per ml. […]

HSV-1 = assay: HSV plaque reduction assay in Vero cells (HSV-1); assay type: cell-based, Herpes Simplex Virus; settings: mean of two determinations
Description: as §1, §2
Plate Layout. Dextrin sulphate (D.S.) concentrations are in mg per ml.
• (iv) Pipette cell medium off all wells except the cell control wells. • (v) Inoculate the appropriate well with 1 ml Dextrin sulphate made up in Minimum Essential Medium as per above layout. • (vi) Incubate the plate at 37° C. in CO2 incubator for 1 hour. • (vii) Remove Dextrin sulphate. • (viii) Inoculate 200 μl of virus dilution per well. • (ix) Incubate the plate at 37° C. in CO2 incubator for 1 hour. • (x) Add 1 ml Dextrin sulphate in CMC to appropriate wells, incubate the plates at 37° C. in CO2 incubator for 60 hours. • (xi) Fix with 10% formalin in PBS by topping up the wells, leave for a minimum of 1 hour. • (xii) Decant formalin, rinse plate in water, stain with crystal violet for 5-10 mins, rinse and drain. Leave plates to dry before counting.
(xiii) Count plaques, calculate IC50 by Grafit.

## dextrin sulphate
[1]; Sa2f preincubated with dextrin sulphate before infecting the cell line
  Inhibition (Expt. 2.1.1): inhibition by dextrin
[1]; dextrin sulphate preincubated with the cell line before infection with Sa2f
  Inhibition (Expt. 2.1.2): inhibition by dextrin
[1]; larger infecting doses of Sa2f (400 inclusion bodies in 30 fields)
  course of inhibitory activity (Expt. 2.3.1): plateaued off
[1]; lower infecting doses (40 inclusion bodies in 30 fields)
  course of inhibitory activity (Expt. 2.3.2): plateaued off
[1]; lower infecting doses (40 inclusion bodies in 30 fields), dextrin sulphate 1000 μg/ml
  inhibition (Expt. 2.3.2): b) 80-90% inhibition
[1]; use of different infecting doses of Sa2f
  Inhibition (Expt. 2.3): inhibition by dextrin
HSV-2; HSV-2 ACV resistant
  IC50: 4 µg/mL
HSV-2; HSV-2 ACV sensitive
  IC50: 110 µg/mL
HSV-1; DM-21, Laboratory HSB-1 ACV resistant
  IC50: 910 µg/mL
HSV-1; HSV-1 ACV resistant
  IC50: 2770 µg/mL
HSV-1; HSV-1 ACV sensitive
  IC50: 1130 µg/mL
HSV-1; SC-16, Laboratory HSV-1 ACV sensitive
  IC50: 330 µg/mL
